Laboratory results taken from patent publication US20210387966A1, “2-AMINO-N-HETEROARYL-NICOTINAMIDES AS NAV1.8 INHIBITORS” (Merck Sharp & Dohme Corp., priority 2018, published 2021).

Each compound was assayed against T1, human Nav1.8 channels (Homo sapiens, UniProt Q9Y5Y9) (assay: Nav1.8 Qube automated patch-clamp assay). Details: human Nav1.8 stably expressed in HEK 293 cells; whole-cell voltage clamp, room temperature; resting or inactivated state not specified; read-out: IC50 values (nM) for Examples in the Nav1.8 Qube Assay.
T1 construct: expressed in transfected cells
Type: cell-based
How it was run: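 Whole-cell patch clamp at room temperature on HEK293 cells stably expressing human Nav1.8. A 1 Hz train of ten 20 ms pulses to 10 mV from −90 mV holding, with −67 mV repolarization, was applied; first- and tenth-pulse peak currents gave resting and inactivated-state IC50s by Hill fitting.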

T1 sequence (Q9Y5Y9 whole entry): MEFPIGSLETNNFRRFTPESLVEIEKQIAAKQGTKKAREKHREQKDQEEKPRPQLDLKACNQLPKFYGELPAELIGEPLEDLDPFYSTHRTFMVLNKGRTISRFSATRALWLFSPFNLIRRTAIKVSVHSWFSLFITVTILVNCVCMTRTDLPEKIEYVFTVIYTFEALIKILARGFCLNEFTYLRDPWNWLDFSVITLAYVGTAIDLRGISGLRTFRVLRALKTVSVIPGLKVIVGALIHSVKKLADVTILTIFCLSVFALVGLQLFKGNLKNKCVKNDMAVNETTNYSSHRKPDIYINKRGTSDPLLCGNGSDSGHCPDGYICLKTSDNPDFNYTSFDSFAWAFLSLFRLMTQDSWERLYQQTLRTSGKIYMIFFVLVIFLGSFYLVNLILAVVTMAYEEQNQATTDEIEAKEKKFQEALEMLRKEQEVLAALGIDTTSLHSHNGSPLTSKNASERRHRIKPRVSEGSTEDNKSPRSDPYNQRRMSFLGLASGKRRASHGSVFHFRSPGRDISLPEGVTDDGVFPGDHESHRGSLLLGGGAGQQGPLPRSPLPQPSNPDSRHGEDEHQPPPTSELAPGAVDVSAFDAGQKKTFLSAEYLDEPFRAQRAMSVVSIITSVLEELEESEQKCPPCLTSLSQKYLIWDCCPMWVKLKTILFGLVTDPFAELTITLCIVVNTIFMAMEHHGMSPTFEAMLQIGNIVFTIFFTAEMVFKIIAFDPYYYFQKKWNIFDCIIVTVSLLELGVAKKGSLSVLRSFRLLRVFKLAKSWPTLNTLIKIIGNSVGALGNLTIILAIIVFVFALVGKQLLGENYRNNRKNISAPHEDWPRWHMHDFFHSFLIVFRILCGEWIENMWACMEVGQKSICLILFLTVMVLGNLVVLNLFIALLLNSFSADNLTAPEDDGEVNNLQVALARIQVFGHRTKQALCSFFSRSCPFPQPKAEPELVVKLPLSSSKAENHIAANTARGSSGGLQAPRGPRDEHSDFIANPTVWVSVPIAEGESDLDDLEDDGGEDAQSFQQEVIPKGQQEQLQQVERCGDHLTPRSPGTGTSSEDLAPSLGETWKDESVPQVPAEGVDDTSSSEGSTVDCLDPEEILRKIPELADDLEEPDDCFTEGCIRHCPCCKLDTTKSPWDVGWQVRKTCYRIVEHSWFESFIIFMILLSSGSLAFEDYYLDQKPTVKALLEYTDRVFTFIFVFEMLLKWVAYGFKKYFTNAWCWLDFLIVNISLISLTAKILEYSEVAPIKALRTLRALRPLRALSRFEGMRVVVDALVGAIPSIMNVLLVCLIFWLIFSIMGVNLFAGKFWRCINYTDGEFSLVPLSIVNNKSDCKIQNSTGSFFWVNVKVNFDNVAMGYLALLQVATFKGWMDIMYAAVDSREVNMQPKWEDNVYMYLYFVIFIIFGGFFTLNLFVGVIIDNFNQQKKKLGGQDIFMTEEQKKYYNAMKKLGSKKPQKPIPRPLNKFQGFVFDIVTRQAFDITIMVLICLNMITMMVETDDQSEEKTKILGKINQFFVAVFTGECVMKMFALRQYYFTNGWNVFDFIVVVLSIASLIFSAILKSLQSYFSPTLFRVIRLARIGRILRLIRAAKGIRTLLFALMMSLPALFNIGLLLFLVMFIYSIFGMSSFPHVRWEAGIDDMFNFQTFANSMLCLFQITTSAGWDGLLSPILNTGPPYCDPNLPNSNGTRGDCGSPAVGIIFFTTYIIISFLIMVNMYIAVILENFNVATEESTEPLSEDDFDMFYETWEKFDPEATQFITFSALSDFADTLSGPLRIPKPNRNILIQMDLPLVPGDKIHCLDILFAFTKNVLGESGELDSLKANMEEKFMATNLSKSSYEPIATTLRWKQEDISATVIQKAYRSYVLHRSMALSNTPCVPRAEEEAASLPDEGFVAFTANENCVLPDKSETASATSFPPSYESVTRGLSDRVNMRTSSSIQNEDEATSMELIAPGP

In order of falling IC50:
1. N#CC1CCN(c2ncc(C(F)(F)F)cc2C(=O)Nc2ccnc(S(N)(=O)=O)c2)C1 (single isomer, unassigned) [Example 130, (R or S)-2-(3-cyanopyrrolidin-1-yl)-N-(2-sulfamoylpyridin-4-yl)-5-(trifluoromethyl)nicotinamide]  3880 nM
2. NC(=O)c1cncc(NC(=O)c2cc(C(F)(F)F)cnc2N2CCCCCC2)c1 [Example 8, 2-(azepan-1-yl)-N-(5-carbamoylpyridin-3-yl)-5-(trifluoromethyl)nicotinamide]  2350 nM
3. NS(=O)(=O)c1cc(NC(=O)c2cc(C(F)(F)F)cnc2N2CCCCC2c2ccc(F)cc2)ccn1 (stereo not drawn) [Example 95, 2-[2-(4-fluorophenyl)-1-piperidyl]-N-(2-sulfamoyl-4-pyridyl)-5-(trifluoromethyl)pyridine-3-carboxamide]  1420 nM
4. C[C@@H]1CN(c2ncc(C(F)(F)F)cc2C(=O)Nc2ccnc(S(N)(=O)=O)c2)CCCO1 [Example 111, 2-[(2R)-2-methyl-1,4-oxazepan-4-yl]-N-(2-sulfamoyl-4-pyridyl)-5-(trifluoromethyl)pyridine-3-carboxamide]  633 nM
5. C[C@H]1CN(c2ncc(C(F)(F)F)cc2C(=O)Nc2ccnc(S(N)(=O)=O)c2)CCO1 [Example 110, 2-[(2S)-2-methylmorpholin-4-yl]-N-(2-sulfamoyl-4-pyridyl)-5-(trifluoromethyl)pyridine-3-carboxamide]  505 nM
6. NS(=O)(=O)c1cc(NC(=O)c2cc(C(F)(F)F)cnc2N2C[C@H]3C[C@@H](C2)C3(F)F)ccn1 [Example 76, 2-((1R,5S)-6,6-difluoro-3-azabicyclo[3.1.1]heptan-3-yl)-N-(2-sulfamoylpyridin-4-yl)-5-(trifluoromethyl)nicotinamide]  389 nM
7. N#Cc1cc(NC(=O)c2cc(C(F)(F)F)cnc2N2C[C@H]3CC[C@H]3C2)ccn1 [Example 153, 2-[(1R,5S)-3-azabicyclo[3.2.0]heptan-3-yl]-N-(2-cyano-4-pyridyl)-5-(tri-fluoromethyl)pyridine-3-carboxamide]  310 nM
8. NS(=O)(=O)c1cc(NC(=O)c2cc(C(F)(F)F)cnc2N2CCC[C@@H]2C(F)(F)F)ccn1 [Example 127, (R)-N-(2-sulfamoylpyridin-4-yl)-5-(trifluoromethyl)-2-(2-(trifluoromethyl)pyrrolidin-1-yl)nicotinamide]  220 nM
9. C[C@H]1CCN(c2ncc(C(F)(F)F)cc2C(=O)Nc2ccnc(S(N)(=O)=O)c2)CCO1 [Example 108, 2-[(7S)-7-methyl-1,4-oxazepan-4-yl]-N-(2-sulfamoyl-4-pyridyl)-5-(trifluoromethyl)pyridine-3-carboxamide]  191 nM
10. COc1ccc(C(=O)Nc2cncc(S(N)(=O)=O)c2)c(N2CCCC(F)(F)CC2)n1 [Example 192, 2-(4,4-difluoroazepan-1-yl)-6-methoxy-N-(5-sulfamoyl-3-pyridyl)pyridine-3-carboxamide]  163 nM
11. NS(=O)(=O)c1cc(NC(=O)c2cc(C(F)(F)F)cnc2N2CCC(c3ccc(C(F)(F)F)cc3)C2)ccn1 (stereo not drawn) [Example 85, N-(2-sulfamoyl-4 pyridyl)-5-(trifluoromethyl)-2-[3-[4-(trifluoromethyl)phenyl]pyrrolidin-1-yl]pyridine-3-carboxamide]  152 nM
12. COc1cc(NC(=O)c2c(N3CCCCCC3)nc(C)c(Cl)c2C)ccn1 [Example 187, 2-(azepan-1-yl)-5-chloro-N-(2-methoxy-4-pyridyl)-4,6-dimethyl-pyridine-3-carboxamide]  141 nM
13. NS(=O)(=O)c1cc(NC(=O)c2cc(C(F)(F)F)cnc2N2CC3CC(F)(F)C3C2)ccn1 (single isomer, unassigned) [Example 65, 2-((1S,5R or 1R,5S)-6,6-difluoro-3-azabicyclo[3.2.0]heptan-3-yl)-N-(2-sulfamoylpyridin-4-yl)-5-(trifluoromethyl)nicotinamide]  94 nM
14. CC1CN(c2ncc(C(F)(F)F)cc2C(=O)Nc2ccnc(C(N)=O)c2)CCC1(F)F (single isomer, unassigned) [Example 157, N-(2-carbamoyl-4-pyridyl)-2-[(3R or 3S)-4,4-difluoro-3-methyl-1-piperidyl]-5-(trifluoromethyl)-pyridine-3-carboxamide]  82 nM
15. C[C@@H]1CN(c2ncc(C(F)(F)F)cc2C(=O)Nc2ccnc(C#N)c2)C[C@H](C)C1(F)F [Example 150, N-(2-cyano-4-pyridyl)-2-[(3S,5R)-4,4-difluoro-3,5-dimethyl-1-piperidyl]-5-(tri-fluoromethyl)pyridine-3-carboxamide]  77 nM
16. NS(=O)(=O)c1cc(NC(=O)c2cc(-c3ccccc3)cnc2N2CCC(F)(F)CC2)ccn1 [Example 205, 2-(4,4-difluoropiperidin-1-yl)-5-phenyl-N-(2-sulfamoylpyridin-4-yl)nicotinamide]  71 nM
17. NS(=O)(=O)c1cc(NC(=O)c2cc(C3CC3)c(OCC(F)(F)F)nc2N2CCC(F)(F)CC2)ccn1 [Example 20, 5-cyclopropyl-2-(4,4-difluoropiperidin-1-yl)-N-(2-sulfamoylpyridin-4-yl)-6-(2,2,2-trifluoroethoxy)nicotinamide]  67 nM
18. CC1CN(c2ncc(C(F)(F)F)cc2C(=O)Nc2ccnc(S(C)(=O)=O)c2)CCC1(F)F (single isomer, unassigned) [Example 149, 2-[(3S or 3R)-4,4-difluoro-3-methyl-1-piperidyl]-N-(2-methylsulfonyl-4-pyridyl)-5-(trifluoro-methyl)pyridine-3-carboxamide]  57 nM
19. CS(=O)(=O)n1nc(NC(=O)c2cc(C(F)(F)F)cnc2N2CCCC(F)(F)CC2)c2ccccc21 [Example 34, 2-(4,4-difluoroazepan-1-yl)-N-[1-(methylsulfonyl)-1H-indazol-3-yl]-5-(trifluoromethyl)pyridine-3-carboxamide]  50 nM
20. Cc1nc(N2CCC3(CC2)CC3)c(C(=O)Nc2cncc(S(N)(=O)=O)c2)c(C)c1Cl [Example 190, 2-(6-azaspiro[2.5]octan-6-yl)-5-chloro-4,6-dimethyl-N-(5-sulfamoyl-3-pyridyl)pyridine-3-carboxamide]  31 nM
21. NS(=O)(=O)c1cc(NC(=O)c2cc(C(F)(F)F)cnc2N2CCOC(C(F)(F)F)CC2)ccn1 (single isomer, unassigned) [Example 119, (S or R)-N-(2-sulfamoylpyridin-4-yl)-5-(trifluoromethyl)-2-(7-(trifluoromethyl)-1,4-oxazepan-4-yl)nicotinamide]  30 nM
22. Cc1cc(Cl)nc(N2CCC(F)(F)CC2)c1C(=O)Nc1ccnc(S(N)(=O)=O)c1 [Example 170, 6-chloro-2-(4,4-difluoropiperidin-1-yl)-4-methyl-N-(2-sulfamoylpyridin-4-yl)nicotinamide]  24 nM
23. NS(=O)(=O)c1cc(NC(=O)c2cc(C(F)(F)F)cnc2N2CC3CC(F)(F)C3C2)ccn1 (single isomer, unassigned) [Example 64, 2-((1R,2S or 1S,5R)-6,6-difluoro-3-azabicyclo[3.2.0]heptan-3-yl)-N-(2-sulfamoylpyridin-4-yl)-5-(trifluoromethyl)nicotinamide]  23 nM
24. NS(=O)(=O)c1cc(NC(=O)c2cc(C(F)(F)F)cnc2N2CCC[C@H]2C(F)(F)F)ccn1 [Example 126, N-(2-sulfamoylpyridin-4-yl)-5-(trifluoromethyl)-2-[(2S)-2-(trifluoromethyl)pyrrolidin-1-yl]pyridine-3-carboxamide]  21 nM
25. Cc1nc(N2CCC(F)(F)CC2)c(C(=O)Nc2ccnc(S(N)(=O)=O)c2)cc1C(C)(C)C [Example 180, 5-(tert-butyl)-2-(4,4-difluoropiperidin-1-yl)-6-methyl-N-(2-sulfamoylpyridin-4-yl)nicotinamide]  14 nM
26. Cc1nc(N2CCC(F)(F)CC2)c(C(=O)Nc2ccnc(S(N)(=O)=O)c2)cc1F [Example 178, 2-(4,4-difluoropiperidin-1-yl)-5-fluoro-6-methyl-N-(2-sulfamoylpyridin-4-yl)nicotinamide]  13 nM
27. Cc1nc(N2CCC(F)(F)CC2)c(C(=O)Nc2cncc(S(N)(=O)=O)c2)c(C)c1Cl [Example 189, 5-chloro-2-(4,4-difluoro-1-piperidyl)-4,6-dimethyl-N-(5-sulfamoyl-3-pyridyl)pyridine-3-carboxamide]  13 nM
28. NS(=O)(=O)c1cc(NC(=O)c2cc(OC(F)F)cnc2N2CCCC(F)(F)CC2)ccn1 [Example 171, 2-(4,4-difluoroazepan-1-yl)-5-(difluoromethoxy)-N-(2-sulfamoylpyridin-4-yl)nicotinamide]  9.2 nM
29. NS(=O)(=O)c1cc(NC(=O)c2cc(C(F)(F)F)cnc2N2CCCC(Cl)(Cl)CC2)ccn1 [Example 51, 2-(4,4-Dichloroazepan-1-yl)-N-(2-sulfamoylpyridin-4-yl)-5-(trifluoromethyl)nicotinamide]  6.6 nM
30. Cc1nc(N2CCCCCC2)c(C(=O)Nc2cncc(S(N)(=O)=O)c2)c(C)c1Cl [Example 188, 2-(azepan-1-yl)-5-chloro-4,6-dimethyl-N-(5-sulfamoyl-3-pyridyl)pyridine-3-carboxamide]  5.9 nM
31. CS(=O)(=O)n1cc(NC(=O)c2cc(C(F)(F)F)cnc2N2CCCC(F)(F)CC2)c2cccnc21 [Example 30, 2-(4,4-difluoroazepan-1-yl)-N-[1-(methylsulfonyl)-1H-pyrrolo[2,3-b]pyridin-3-yl]-5-(trifluoromethyl)pyridine-3-carboxamide]  4 nM
32. CC1CN(c2ncc(C(F)(F)F)cc2C(=O)Nc2ccnc(S(N)(=O)=O)c2)CCCC1(F)F (stereo not drawn) [Example 131, 2-(4,4-difluoro-3-methylazepan-1-yl)-N-(2-sulfamoylpyridin-4-yl)-5-(trifluoromethyl)nicotinamide]  2 nM
33. Cc1nc(N2CCC3(CC2)CC3)c(C(=O)Nc2ccnc(S(N)(=O)=O)c2)c(C)c1Cl [Example 202, 5-chloro-4,6-dimethyl-2-(6-azaspiro[2.5]octan-6-yl)-N-(2-sulfamoylpyridin-4-yl)nicotinamide]  1.9 nM
